Among the data in patent publication US7517894B2, “VEGFR-2 and VEGFR-3 inhibitory anthranilamide pyridines” (Bayer Schering Pharma AG, priority 2003, dated 2009) are melting point and IC50 values, retold here.

The target in one series is VEGFR II (KDR) (Homo sapiens, UniProt P35968). The series can be described thus: Inhibition of the KDR kinase activity (33P-ATP, poly-(Glu4Tyr) phosphocellulose filter assay). The following applies: 10 minutes at room temperature; phosphate incorporation into poly-(Glu4Tyr). The class given is biochemical. As for the experimental part: • Stock solution A: 3 mmol of ATP in water, pH 7.0 (−70° C.) • Stock solution B: g-33P-ATP 1 mCi/100 μl • Stock solution C: poly-(Glu4Tyr) 10 mg/ml in water Solution for Dilutions • Substrate solvent: 10 mmol of DTT, 10 mmol of manganese chloride, 100 mmol of magnesium chloride • Enzyme solution: 120 mmol of tris/HCl, pH 7.5, 10 μM of sodium vanadium oxide Sample Application 1
In a microtiter plate (without protein binding) that tapers to a point, 10 μl of substrate mix (10 μl of volume of ATP stock solution A+25 μCi of g-33P-ATP (about 2.5 μl of stock solution B)+30 μl of poly-(Glu4Tyr) stock solution C+1.21 ml of substrate solvent), 10 μl of inhibitor solution (substances corresponding to the dilutions, 3% DMSO in substrate solvent as a control) and 10 μl of enzyme solution (11.25 μg of enzyme stock solution (KDR or FLT-1 kinase) are added at 4° C. in 1.25 ml of enzyme solution (dilute). It is thoroughly mixed and incubated for 10 minutes at room temperature. Then, 10 μl of stop solution (250 mmol of EDTA, pH 7.0) is added, mixed, and 10 μl of the solution is transferred to a P 81 phosphocellulose filter. Then, it is washed several times in 0.1 M phosphoric acid. The filter paper is dried, coated with Meltilex and measured in a microbeta counter.
The IC50 values are determined from the inhibitor concentration, which is necessary to inhibit the phosphate incorporation to 50% of the uninhibited incorporation after removal of the blank reading (EDTA-stopped reaction).

For series [1], the target named is T1, human cytochrome P 450 isoenzyme (3A4) (Homo sapiens, UniProt P08684).
T1 construct: host or cells: baculovirus/insect cells
The series can be described thus: Cytochrome P450 inhibition (Crespi et al.). The following applies: baculovirus/insect cell-expressed human isoenzyme 3A4. The class given is in vitro ADME. The method, then: The cytochrome P450 inhibition was performed according to the publication of Crespi et al. (Anal. Biochem., 248, 188-190 (1997)) with use of baculovirus/insect cell-expressed, human cytochrome P 450 isoenzyme (3A4).

Sequence of VEGFR II (KDR) (P35968 20-1356): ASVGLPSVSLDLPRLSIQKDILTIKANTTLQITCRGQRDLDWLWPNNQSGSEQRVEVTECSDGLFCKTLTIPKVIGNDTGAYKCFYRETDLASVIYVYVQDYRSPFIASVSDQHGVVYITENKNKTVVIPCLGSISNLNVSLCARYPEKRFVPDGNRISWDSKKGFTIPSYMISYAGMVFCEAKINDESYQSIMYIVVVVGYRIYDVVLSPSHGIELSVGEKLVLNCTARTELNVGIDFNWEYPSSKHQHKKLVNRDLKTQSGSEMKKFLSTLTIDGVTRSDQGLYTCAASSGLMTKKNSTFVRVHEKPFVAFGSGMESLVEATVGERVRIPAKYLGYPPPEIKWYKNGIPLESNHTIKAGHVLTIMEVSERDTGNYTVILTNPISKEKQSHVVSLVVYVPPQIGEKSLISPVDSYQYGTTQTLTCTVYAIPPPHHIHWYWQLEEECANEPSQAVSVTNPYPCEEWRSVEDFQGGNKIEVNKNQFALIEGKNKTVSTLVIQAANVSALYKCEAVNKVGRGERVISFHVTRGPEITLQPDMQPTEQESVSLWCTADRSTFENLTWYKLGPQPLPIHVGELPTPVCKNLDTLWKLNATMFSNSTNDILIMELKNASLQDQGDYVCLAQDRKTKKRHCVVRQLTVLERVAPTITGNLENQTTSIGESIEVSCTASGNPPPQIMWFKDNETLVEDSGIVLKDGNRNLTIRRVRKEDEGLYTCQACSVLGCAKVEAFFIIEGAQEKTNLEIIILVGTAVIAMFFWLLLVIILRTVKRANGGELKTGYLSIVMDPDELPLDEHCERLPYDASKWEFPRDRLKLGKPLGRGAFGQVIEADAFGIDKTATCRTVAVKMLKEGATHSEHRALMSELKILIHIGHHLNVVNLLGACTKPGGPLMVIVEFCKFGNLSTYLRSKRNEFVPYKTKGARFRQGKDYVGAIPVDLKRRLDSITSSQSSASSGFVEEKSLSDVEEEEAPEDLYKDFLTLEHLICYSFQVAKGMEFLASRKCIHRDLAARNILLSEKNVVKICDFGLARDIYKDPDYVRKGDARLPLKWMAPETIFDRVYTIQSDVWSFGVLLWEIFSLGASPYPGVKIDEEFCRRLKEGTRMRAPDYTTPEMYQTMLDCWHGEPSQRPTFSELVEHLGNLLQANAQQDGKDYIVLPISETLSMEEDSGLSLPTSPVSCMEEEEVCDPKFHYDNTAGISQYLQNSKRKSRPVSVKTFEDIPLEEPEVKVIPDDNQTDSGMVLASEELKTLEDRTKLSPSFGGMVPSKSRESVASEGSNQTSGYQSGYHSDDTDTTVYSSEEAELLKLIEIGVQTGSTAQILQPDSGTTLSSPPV
T1 sequence (P08684 whole entry): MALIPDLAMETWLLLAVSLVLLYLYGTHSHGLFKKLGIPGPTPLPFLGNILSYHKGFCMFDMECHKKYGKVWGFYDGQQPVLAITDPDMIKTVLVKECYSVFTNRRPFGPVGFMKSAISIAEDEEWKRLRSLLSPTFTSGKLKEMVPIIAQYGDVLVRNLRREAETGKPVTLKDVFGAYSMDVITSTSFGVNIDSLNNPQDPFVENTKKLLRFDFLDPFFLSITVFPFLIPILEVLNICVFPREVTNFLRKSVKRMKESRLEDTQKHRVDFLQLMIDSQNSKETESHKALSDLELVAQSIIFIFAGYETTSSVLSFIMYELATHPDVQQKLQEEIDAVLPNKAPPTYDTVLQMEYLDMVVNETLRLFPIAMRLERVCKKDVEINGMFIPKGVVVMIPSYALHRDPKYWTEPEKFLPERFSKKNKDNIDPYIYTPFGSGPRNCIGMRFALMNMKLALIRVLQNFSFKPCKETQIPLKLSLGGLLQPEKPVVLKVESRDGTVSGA

Usually melting point stands for the temperature of the solid-liquid transition. Turning to `Nc1cc(CNc2ccccc2C(=O)Nc2cc3ccccc3cn2)ccn1` [Example 2.1, 2-[(2-Amino-pyridin-4-ylmethyl)-amino]-N-isoquinolin-3-yl-benzamide], the melting point turned out to be 202 °C. Broadly, the IC50 is the concentration needed to halve the response being measured. Consider `CC(=O)N(C)c1cc(CNc2ccccc2C(=O)Nc2cc3ccccc3cn2)ccn1` [Example 6.31, 2-{[2-(Acetyl-methyl-amino)-pyridin-4-ylmethyl]-amino}-N-isoquinolin-3-yl-benzamide], for which the melting point came out at 71 °C. In addition, half-maximal inhibition against VEGFR II (KDR) (IC50) required 65 nM. Moreover, in series [1], the IC50 was determined as 11000 nM.

Consider `CN(C)C(=O)Nc1cc(CNc2ccccc2C(=O)Nc2cc3ccccc3cn2)ccn1` [Example 3.30, 2-{[2-(3,3-Dimethyl-ureido)-pyridin-4-ylmethyl]-amino}-N-(3-isoquinolinyl)-benzamide], for which the values for the IC50 (against VEGFR II (KDR); in series [1]) were 10 nM and 5500 nM, respectively.

For the compound `O=C(Nc1cc2ccccc2cn1)c1ccccc1NCc1ccnc(N2CCOCC2)c1` [Example 1.14], the values for the IC50 (on VEGFR II (KDR); in series [1]) were 52 nM and greater than 30000 nM, respectively. Regarding `Nc1cc(CNc2ccccc2C(=O)Nc2ccc3[nH]ncc3c2)ccn1` [Example 2.2, 2-[(2-Amino-pyridin-4-ylmethyl)-amino]-N-(1H-indazol-5-yl)-benzamide], the melting point turned out to be 200 °C.

In the case of `CCOC(=O)Nc1cc(CNc2ccccc2C(=O)Nc2ccc3cn[nH]c3c2)ccn1` [Example 6.22], the concentration for half-maximal inhibition (IC50) was 24 nM against VEGFR II (KDR) and 10000 nM in series [1]. For the compound `O=C(Nc1cccc(C(F)(F)F)c1)c1ccccc1NCc1ccnc(N2C(=O)COCC2=O)c1` [Example 9.1, 2-{[2-(3,5-Dioxo-morpholin-4-yl)-pyridin-4-ylmethyl]-amino}-N-(3-trifluoromethyl-phenyl)-benzamide], the melting point stood at 201.9 °C. Consider `CNC(=O)Nc1cc(CNc2ccccc2C(=O)Nc2cc3ccccc3cn2)ccn1` [Example 3.24], for which the figures for the half-maximal inhibitory concentration (IC50) (on VEGFR II (KDR); in series [1]) were 12 nM and 14000 nM, respectively.
